Usually EC50 stands for the midpoint of the concentration-response curve.

This assay concerns human FXN. Description: FXN mRNA expression by qRT-PCR in GM15850 cells after 48 hr compound treatment. Format: cell-based. Conditions: GM15850 cells, 48 hr incubation, hFXN normalized to hGAPDH, read-out: EC50 WT (nM, 48 hr). How it is done:
Cell culture: Cells were cultured in RPMI1640 medium+15% FBS. Cells were maintained at a density between 2e5/mL and 1e6/mL. Cells were centrifuged, resuspended in fresh medium, counted and plated at 150,000 cells per well in 100 uL in a non-coated, flat bottom tissue culture plate.
Compound treatment: 10 mM stock solution of FA GeneTAC was diluted 1:10 in DMSO followed by a 1:100 dilution in growth medium. […] Compound was then diluted at a 1:3 ratio into growth medium containing 0.01% DMSO. 5-point, 3-fold dose response curve was generated. 11 μL of 10× compound was added to wells containing 100 μL cell suspension of GM15850. 11 μL growth medium containing 0.01% DMSO was added to all wells not treated with FA GeneTAC. Cells were allowed to incubate for 48 hrs prior to cell lysis using guanidine isothiocyanate solution.
RNA isolation: Total RNA was isolated and purified in 384-well column filter plates using chaotropic salt.
qRT-PCR: qRT-PCR reactions were assembled using AgPath-ID reagents (Thermo Fisher) using 6 uL mastermix and 4 μL RNA. qRT-PCR TaqMan primer probe sets against human FXN (Assay ID Hs01075496_m1) and human GAPDH (Assay ID Hs00266705_g1) were used to measure the intended targets. qRT-PCR was run on the ThermoFisher QuantStudio 6 PRO instrument using the manufacturer's recommended cycling conditions.
Data analysis: qPCR data was analyzed using Thermo Fisher Design and Analysis software. Data was exported to Excel and hFXN expression was normalized to hGAPDH expression.
In general terms: Real-time PCR tracks product formation cycle by cycle.

Each structure is given as a SMILES string. Where two headings read alike, the source gives them in different places.

In the case of `COC[C@@H](C)n1c(C2CCN(C(=O)COCCOCCOCCOCCOCCOCCOCCNC(=O)CCNC(=O)c3nc(NC(=O)CCNC(=O)c4cc(NC(=O)c5nc(NC(=O)CCNC(=O)c6cc(NC(=O)c7nccn7C)cn6C)cn5C)cn4C)cn3C)CC2)nc2cnc3cc(-c4c(C)noc4C)c(OC)cc3c21` [Compound 43, N-[5-[(2-[[2-([2-[(23-[4-[7-(3,5-dimethyl-1,2-oxazol-4-yl)-8-methoxy-1-[(2R)-1-methoxypropan-2-yl]imidazo[4,5-c]quinolin-2-yl]piperidin-1-yl]-23-oxo-3,6,9,12,15,18,21-heptaoxatricosan-1-yl)carbamoyl]ethyl]carbamoyl)-1-methylimidazol-4-yl]carbamoyl]ethyl)carbamoyl]-1-methylpyrrol-3-yl]-1-methyl-4-(3-[[1-methyl-4-(1-methylimidazole-2-amido)pyrrol-2-yl]formamido]propanamido) imidazole-2-carboxamide], the EC50 (Homo sapiens) is above 500 nM. Same read-out and setting: as for `Cc1cc(-c2nc3cnc(C4CCN(C(=O)COCCOCCOCCOCCOCCC(=O)NCCCN(C)CCCNC(=O)CCNC(=O)c5nc(NC(=O)CCNC(=O)c6cc(NC(=O)c7nc(NC(=O)CCNC(=O)c8cc(NC(=O)c9nccn9C)cn8C)cn7C)cn6C)cn5C)CC4)cc3n2[C@@H](C)c2ccccc2)nn(C)c1=O` [Compound 19], the figure is below 100 nM; as for `COc1ccc2c(c1)C(c1ccc(Cl)cc1)=N[C@H](CC(=O)Nc1ccc(OCCOCCOCCOCCOCCOCCOCCOCCOCCNC(=O)CCNC(=O)c3nc(NC(=O)CCNC(=O)c4cc(NC(=O)c5nc(NC(=O)CCNC(=O)c6cc(NC(=O)c7nccn7C)cn6C)cn5C)cn4C)cn3C)cc1)c1nnc(C)n1-2` [Compound 26], 100 to 500 nM. On the same count and under the same terms, as for `Cc1sc2c(c1C)C(c1ccc(Cl)cc1)=N[C@@H](CC(=O)Nc1cccc(OCCOCCOCCOCCOCCOCCC(=O)NCCCN(C)CCCNC(=O)CCNC(=O)c3nc(NC(=O)CCNC(=O)c4cc(NC(=O)c5nc(NC(=O)CCNC(=O)c6cc(NC(=O)c7nccn7C)cn6C)cn5C)cn4C)cn3C)c1)c1nnc(C)n1-2` [Compound 62], the figure is below 100 nM; as for `Cc1sc2c(c1C)C(c1ccc(Cl)cc1)=N[C@@H](CC(=O)Nc1ccc(OCCOCCOCCOCCOCCOCCC(=O)NCCCCCCCNC(=O)CCNC(=O)c3nc(NC(=O)CCNC(=O)c4cc(NC(=O)c5nc(NC(=O)CCNC(=O)c6cc(NC(=O)c7nccn7C)cn6C)cn5C)cn4C)cn3C)cc1)c1nnc(C)n1-2` [Compound 59], below 100 nM; as for `CC(=O)N1c2ccc(-c3ccc(C(=O)NCCOCCOCCOCCOCCOCCOCCOCCNC(=O)CCNC(=O)c4nc(NC(=O)CCNC(=O)c5cc(NC(=O)c6nc(NC(=O)CCNC(=O)c7cc(NC(=O)c8nccn8C)cn7C)cn6C)cn5C)cn4C)cc3)cc2[C@H](Nc2ccc(Cl)cc2)C[C@@H]1C` [Compound 35, N-(5-((3-((2-((1-(4-((2S,4R)-1-acetyl-4-((4-chlorophenyl)amino)-2-methyl-1,2,3,4-tetrahydroquinolin-6-yl)phenyl)-1,27-dioxo-5,8,11,14,17,20,23-heptaoxa-2,26-diazanonacosan-29-yl)carbamoyl)-1-methyl-1H-imidazol-4-yl)amino)-3-oxopropyl)carbamoyl)-1-methyl-1H-pyrrol-3-yl)-1-methyl-4-(3-(1-methyl-4-(1-methyl-1H-imidazole-2-carboxamido)-1H-pyrrole-2-carboxamido)propanamido)-1H-imidazole-2-carboxamide], below 100 nM. In the case of `Cc1noc(C)c1-c1cnc2c(-c3ccc(C(=O)NCCOCCOCCOCCOCCOCCOCCOCCOCCNC(=O)CCNC(=O)c4nc(NC(=O)CCNC(=O)c5cc(NC(=O)c6nc(NC(=O)CCNC(=O)c7cc(NC(=O)c8nccn8C)cn7C)cn6C)cn5C)cn4C)cc3)cn([C@@H](C)c3ccccn3)c2c1` [Compound 42], the EC50 (Homo sapiens) is below 100 nM. Take `CC(=O)N1c2ccc(-c3ccc(C(=O)NCCOCCOCCOCCOCCOCCOCCOCCOCCNC(=O)c4nc(NC(=O)CCNC(=O)c5cc(NC(=O)c6nc(NC(=O)CCNC(=O)c7cc(NC(=O)c8nc(NC(=O)CCNC(=O)COCCOCCOCCNC(=N)N)cn8C)cn7C)cn6C)cn5C)cn4C)cc3)cc2[C@H](Nc2ccc(Cl)cc2)C[C@@H]1C` [Compound 87]: where the note is “Homo sapiens”, the EC50 is 100 to 500 nM. Turning to `CC(=O)N1c2ccc(C3=CCN(C(=O)COCCOCCOCCOCCOCCOCCOCCOCCNC(=O)CCNC(=O)c4nc(NC(=O)CCNC(=O)c5cc(NC(=O)c6nc(NC(=O)CCNC(=O)c7cc(NC(=O)c8nccn8C)cn7C)cn6C)cn5C)cn4C)CC3)cc2N(Cc2ccccc2CO)C[C@@H]1C1CC1` [Compound 46], the EC50 (Homo sapiens) was in the range of 100 to 500 nM. Same read-out and setting: as for `Cc1sc2c(c1C)C(c1ccc(Cl)cc1)=N[C@@H](CC(=O)Nc1ccc(OCCOCCOCCOCCOCCOCCOCCOCCOCCNC(=O)CCNC(=O)c3cc(NC(=O)c4nc(NC(=O)CCNC(=O)c5cc(NC(=O)c6nc(NC(=O)CCNC(=O)c7cc(NC(=O)c8nccn8C)cn7C)cn6C)cn5C)cn4C)cn3C)cc1)c1nnc(C)n1-2` [Compound 33], the figure is 100 to 500 nM. As to `COC[C@@H](C)n1c(C2CCN(C(=O)COCCOCCOCCOCCOCCOCCOCCOCCNC(=O)CCNC(=O)c3nc(NC(=O)CCNC(=O)c4cc(NC(=O)c5nc(NC(=O)CCNC(=O)c6cc(NC(=O)c7nccn7C)cn6C)cn5C)cn4C)cn3C)CC2)nc2cnc3cc(-c4c(C)noc4C)c(OC)cc3c21` [Compound 44], the EC50 (Homo sapiens) was 100 to 500 nM. The same measure, in the same setting: the figure for `CC(=O)N1c2ccc(-c3cnc(C(=O)NCCOCCOCCOCCOCCOCCC(=O)NCCCN(C)CCCNC(=O)CCNC(=O)c4nc(NC(=O)CCNC(=O)c5cc(NC(=O)c6nc(NC(=O)CCNC(=O)c7cc(NC(=O)c8nccn8C)cn7C)cn6C)cn5C)cn4C)nc3)cc2N(Cc2ccccc2CO)C[C@@H]1C1CC1` [Compound 30] is above 500 nM.

`Cc1sc2c(c1C)C(c1ccc(Cl)cc1)=N[C@@H](CC(=O)Nc1ccc(OCCOCCOCCOCCOCCOCCC(=O)NCCCN(C)CCCNC(=O)CCNC(=O)c3nc(NC(=O)CCNC(=O)c4cc(NC(=O)c5nc(NC(=O)CCNC(=O)c6cc(NC(=O)c7nccn7C)cn6C)cn5C)cn4C)cn3C)cc1)c1nnc(C)n1-2` [Compound 3]: for the setting “Homo sapiens”, the EC50 lay within 100 to 500 nM. Take `Cc1sc2c(c1C)C(c1ccc(Cl)cc1)=N[C@@H](CC(=O)Nc1ccc(OCCOCCOCCOCCOCCOCCC(=O)N(C)CCCN(C)CCCNC(=O)CCNC(=O)c3nc(NC(=O)CCNC(=O)c4cc(NC(=O)c5nc(NC(=O)CCNC(=O)c6cc(NC(=O)c7nccn7C)cn6C)cn5C)cn4C)cn3C)cc1)c1nnc(C)n1-2` [Compound 53]: for the setting “Homo sapiens”, the EC50 lay within 100 to 500 nM. Still for that read-out and setting: the figure for `Cc1sc2c(c1C)C(c1ccc(Cl)cc1)=N[C@@H](CC(=O)Nc1ccc(OCCOCCOCCOCCOCCOCCOCCOCCC(=O)NCCCN(C)CCCNC(=O)c3cc(NC(=O)c4nc(NC(=O)CCNC(=O)c5cc(NC(=O)c6nc(NC(=O)CCNC(=O)c7cc(NC(=O)c8nccn8C)cn7C)cn6C)cn5C)cn4C)cn3C)cc1)c1nnc(C)n1-2` [Compound 56] is 100 to 500 nM. Turning to `Cc1cc(-c2nc3cnc(C4CCN(CCOCCOCCOCCOCCOCCC(=O)NCCCN(C)CCCNC(=O)CCNC(=O)c5nc(NC(=O)CCNC(=O)c6cc(NC(=O)c7nc(NC(=O)CCNC(=O)c8cc(NC(=O)c9nccn9C)cn8C)cn7C)cn6C)cn5C)CC4)cc3n2[C@@H](C)c2ccccc2)nn(C)c1=O` [Compound 9], for the setting “Homo sapiens”, the EC50 was 100 to 500 nM.

Turning to `CC(=O)N1c2ccc(-c3cnc(C(=O)NCCOCCOCCOCCOCCOCCOCCOCCOCCNC(=O)CCNC(=O)c4nc(NC(=O)CCNC(=O)c5cc(NC(=O)c6nc(NC(=O)CCNC(=O)c7cc(NC(=O)c8nccn8C)cn7C)cn6C)cn5C)cn4C)nc3)cc2N(Cc2ccccc2CO)C[C@@H]1C1CC1` [Compound 48, N-(5-[[2-([2-[(2-[[26-([5-[(2S)-1-acetyl-2-cyclopropyl-4-[[2-(hydroxymethyl)phenyl]methyl]-2,3-dihydroquinoxalin-6-yl]pyrimidin-2-yl]formamido)-3,6,9,12,15,18,21,24-octaoxahexacosan-1-yl]carbamoyl]ethyl)carbamoyl]-1-methylimidazol-4-yl]carbamoyl)ethyl]carbamoyl]-1-methylpyrrol-3-yl)-1-methyl-4-(3-[[1-methyl-4-(1-methylimidazole-2-amido)pyrrol-2-yl]formamido]propanamido)imidazole-2-carboxamide], the EC50 (Homo sapiens) was above 500 nM. As for `Cc1sc2c(c1C)C(c1ccc(Cl)cc1)=N[C@@H](CC(=O)Nc1ccc(OCCOCCOCCOCCOCCOCCOCCC(=O)NCCCN(C)CCCNC(=O)c3cc(NC(=O)c4nc(NC(=O)CCNC(=O)c5cc(NC(=O)c6nc(NC(=O)CCNC(=O)c7cc(NC(=O)c8nccn8C)cn7C)cn6C)cn5C)cn4C)cn3C)cc1)c1nnc(C)n1-2` [Compound 55], the EC50 (Homo sapiens) lay in the range of 100 to 500 nM.

As to `Cc1sc2c(c1C)C(c1ccc(Cl)cc1)=N[C@@H](CC(=O)Nc1ccc(OCCOCCOCCOCCOCCOCCC(=O)NCCCN(CCCNC(=O)CCNC(=O)c3nc(NC(=O)CCNC(=O)c4cc(NC(=O)c5nc(NC(=O)CCNC(=O)c6cc(NC(=O)c7nccn7C)cn6C)cn5C)cn4C)cn3C)CC(F)(F)F)cc1)c1nnc(C)n1-2` [Compound 38], the EC50 is below 100 nM. For `Cc1sc2c(c1C)C(c1ccc(Cl)cc1)=N[C@@H](CC(=O)Nc1ccc(OCCOCCOCCOCCOCCOCCC(=O)N(C)CCCN(C)CCCN(C)C(=O)CCNC(=O)c3nc(NC(=O)CCNC(=O)c4cc(NC(=O)c5nc(NC(=O)CCNC(=O)c6cc(NC(=O)c7nccn7C)cn6C)cn5C)cn4C)cn3C)cc1)c1nnc(C)n1-2` [Compound 54], the EC50 (Homo sapiens) lay in the range of 100 to 500 nM.

The values are drawn from patent US20240050576A1, “METHODS AND COMPOUNDS FOR THE TREATMENT OF GENETIC DISEASE” (Design Therapeutics, Inc., priority 2020, published 2024).
